Where a SMILES comes first, the peptide text is derived from it.
How the values were obtained:
A(H1N1)pdm09 virus [1] = assay type: cell-based
A(H1N1)pdm09 virus [2] = test system: A(H1N1)pdm09 virus
A(H1N1)pdm09 virus [3] = test system: A(H1N1)pdm09 virus; remark: listed apart in the source

| Structure (SMILES) | inhibition of P10 virus replication (A(H1N1)pdm09 virus [1]) | inhibition of P15 virus replication (A(H1N1)pdm09 virus [1]) | IC50 (A(H1N1)pdm09 virus [1]; read-out: IC50 against parent A(H1N1)pdm09 virus (P0)) [µM] | inhibition of viral replication, SARS-CoV-2 (SARS-CoV-2) [fold] | inhibition of P30 and P40 virus replication (A(H1N1)pdm09 virus [1]) | inhibition of viral replication, A(H1N1)pdm09 virus (A(H1N1)pdm09 virus [2]) [fold] | viral RNP release into nuclei (A(H1N1)pdm09 virus [3]) |
| --- | --- | --- | --- | --- | --- | --- | --- |
| CC[C@H](C)[C@H](NC(=O)[C@H](C)NC(=O)CNC(=O)[C@@H](N)CC(N)=O)C(=O)N[C@@H](CS)C(=O)N[C@@H](Cc1c[nH]c2ccccc12)C(=O)NCC(=O)N1CCC[C@H]1C(=O)N[C@@H](CS)C(=O)N1CCC[C@H]1C(=O)N[C@H](C(=O)N[C@@H](C)C(=O)N[C@@H](Cc1ccccc1)C(=O)N[C@@H](CCCNC(=N)N)C(=O)N[C@@H](CCC(N)=O)C(=O)N[C@H](C(=O)NCC(=O)N[C@@H](CC(N)=O)C(=O)N[C@@H](CS)C(=O)NCC(=O)N[C@@H](CCCNC(=N)N)C(=O)N[C@@H](Cc1ccccc1)C(=O)N[C@@H](CCCNC(=N)N)C(=O)N[C@H](C(=O)N[C@@H](CCCNC(=N)N)C(=O)N[C@@H](CS)C(=O)N[C@@H](CS)C(=O)N[C@@H](CCCNC(=N)N)C(=O)N[C@H](C(=O)N[C@@H](CCCNC(=N)N)C(=O)O)[C@@H](C)CC)C(C)C)[C@@H](C)CC)[C@@H](C)O [P9R] (H-NGAICWGPCPTAFRQIGNCGRFRVRCCRIR-OH) |  |  |  | 1000 | could efficiently inhibit P30 and P40 virus replication | > 20 | could inhibit viral RNP release into nuclei |
